Data reported in patent US8153557B2, “Agriculturally useful compositions” (priority 2006, dated 2012).

Tests used:
[1] = Precipitation of Cloquintocet-mexyl hydrate in emulsified concentrate (EW) of Example One; assay type: physicochemical; conditions: EW of Table E1: Aromatic 200 15.3, n-butyl lactate 15.3, ATLOX 4914 1.4, Cloquintocet-mexyl 4.2, ATLAS G-5000 2.2, water 61.6 weight percent
Experimental: The Following Items where Mix Together (See Table E1). [table] The Cloquintocet-mexyl was dissolved into a mixture of Aromatic 200 and n-butyl lactate. The emulsifiers were then mixed into the mixture. Finally, water was added and the mixture was turned into a emulsified concentrate (EW) by mechanical stirring. Precipitation of Cloquintocet-mexyl hydrate was not observed.

[2] = Precipitation of Cloquintocet-mexyl hydrate from A200, BL or A200+BL solutions after addition of water (Example Two); assay type: physicochemical; design: key to Cloquintocet-mexyl hydrate precipitation: “P” means that Cloquintocet-mexyl hydrate precipitated from the mixture.; “S” means that Cloquintocet-mexyl hydrate did not precipitated from the mixture; conditions: about 10 weight percent water added, 4° C.
Experimental: CQC was dissolved into A200, BL, or a mixture of A200+BL. Thereafter, about 10 weight percent water was added to each sample based on the weight of the sample (A200+BL+CQC). Each sample was prepared at 4° C.

## CCCCCC(C)OC(=O)COc1ccc(Cl)c2cccnc12 (stereo not shown) [CQC, Cloquintocet-mexyl]
[1]
  Precipitation of Cloquintocet-mexyl hydrate: not observed
[2]; 50/50 mixture of A200 and BL
  CQC content kept in solution when mixed with water: up to 14 weight percent
[2]; A200(100%)
  CQC content at which Cloquintocet-mexyl hydrate is kept in solution when mixed with water: less than 7 weight percent
[2]; BL(100%)
  CQC content at which Cloquintocet-mexyl hydrate is kept in solution when mixed with water: less than 7 weight percent
[2]; CQC 3 wt %, BL 100%
  Cloquintocet-mexyl hydrate precipitation: S
[2]; CQC 4 wt %, A200 100%
  Cloquintocet-mexyl hydrate precipitation: S
[2]; CQC 5 wt %, BL 100%
  Cloquintocet-mexyl hydrate precipitation: S
[2]; CQC 6 wt %, A200 100%
  Cloquintocet-mexyl hydrate precipitation: S
[2]; CQC 7 wt %, BL 100%
  Cloquintocet-mexyl hydrate precipitation: P
[2]; CQC 8 wt %, A200 100%
  Cloquintocet-mexyl hydrate precipitation: P
[2]; CQC 9 wt %, BL 100%
  Cloquintocet-mexyl hydrate precipitation: P
[2]; CQC 10 wt %, A200 100%
  Cloquintocet-mexyl hydrate precipitation: P
[2]; CQC 11 wt %, BL 100%
  Cloquintocet-mexyl hydrate precipitation: P
[2]; CQC 12 wt %, A200 (12%) + BL (88%)
  Cloquintocet-mexyl hydrate precipitation: P
[2]; CQC 12 wt %, A200 (50%) + BL (50%)
  Cloquintocet-mexyl hydrate precipitation: S
[2]; CQC 12 wt %, A200 (88%) + BL (12%)
  Cloquintocet-mexyl hydrate precipitation: P
[2]; CQC 13 wt %, BL 100%
  Cloquintocet-mexyl hydrate precipitation: P
[2]; CQC 14 wt %, A200 (12%) + BL (88%)
  Cloquintocet-mexyl hydrate precipitation: P
[2]; CQC 14 wt %, A200 (50%) + BL (50%)
  Cloquintocet-mexyl hydrate precipitation: S
[2]; CQC 14 wt %, A200 (88%) + BL (12%)
  Cloquintocet-mexyl hydrate precipitation: P
[2]; CQC 15.5 wt %, A200 100%
  Cloquintocet-mexyl hydrate precipitation: P
[2]; CQC 15.5 wt %, A200 (12%) + BL (88%)
  Cloquintocet-mexyl hydrate precipitation: P
[2]; CQC 15.5 wt %, A200 (50%) + BL (50%)
  Cloquintocet-mexyl hydrate precipitation: P
[2]; CQC 15.5 wt %, A200 (88%) + BL (12%)
  Cloquintocet-mexyl hydrate precipitation: P
[2]; CQC 15.5 wt %, BL 100%
  Cloquintocet-mexyl hydrate precipitation: P
